44 compounds from patent publication US10329307B2, “Heterocyclic compounds as inhibitors of platelet aggregation” (UNIVERSITE DE MONTREAL, priority 2015, dated 2019) can be followed below.

Each structure is given as a SMILES string.

The target in this test is PAR4 (Homo sapiens (Human), UniProt Q96RI0). The test is described as follows: FLIPR assay in PAR4-expressing HEK293 cells (PAR4 antagonist activity). The note with it: H-Ala-Phe(4-F)-Pro-Gly-Trp-Leu-Val-Lys-Asn-Gly-NH2-induced intracellular calcium mobilization, 11-point curves. It counts as cell-based. The text has this: The FLIPR assay is an exemplary in vitro assay for measuring the activity of the PAR4 antagonists of the present invention. In this assay, intracellular calcium mobilization is induced in PAR4 expressing cells by a PAR4 agonist and calcium mobilization is monitored. See, e.g., Example A.
Sequence of PAR4 (Q96RI0 18-385): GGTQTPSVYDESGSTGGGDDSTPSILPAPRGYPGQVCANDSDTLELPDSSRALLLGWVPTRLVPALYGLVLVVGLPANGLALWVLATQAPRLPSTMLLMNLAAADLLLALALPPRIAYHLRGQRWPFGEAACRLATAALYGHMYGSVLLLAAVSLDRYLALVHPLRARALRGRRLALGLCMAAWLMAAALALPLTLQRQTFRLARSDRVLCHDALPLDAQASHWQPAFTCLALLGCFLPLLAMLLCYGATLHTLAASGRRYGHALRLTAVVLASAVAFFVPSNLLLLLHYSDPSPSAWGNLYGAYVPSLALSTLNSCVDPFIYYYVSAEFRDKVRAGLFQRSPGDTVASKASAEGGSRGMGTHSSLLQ
HEK293 cells stably expressing PAR4 were generated by a standard method of transfection of human […] cDNA expression vector or by RAGE technology from Athersys Inc. (Cleveland, Ohio) and selected based on PAR4 protein expression of mRNA expression. […] These cells express endogenous PAR1 and can elicit calcium signal upon stimulation with PAR1 agonist peptide. Cells were grown in Dulbecco's Modified Eagle's Medium (DMEM) (Invitrogen, Carlsbad, Calif.), 10% FBS, 1% PSG, 3 μg/ml puromycin and 25 nM Methotrexate) at 37° C. with 5% CO2.
FLIPR-based calcium mobilization assay in HEK293 cells was used to measure PAR4 antagonism, agonism, and selectivity against PAR1. […] Counter screens for agonist activity and PAR1 antagonist activity were also performed. Briefly, PAR1/PAR4-expressing HEK293 cells were grown in DMEM (Life Technology, Grand Island, N.Y.) containing 10% heat-inactivated FBS, 1% Penicillin-Streptomycin, 10 μg/mL blasticidin, and 100 μg/mL Zeocin at 37° C. with 5% CO2. Cells were plated overnight prior to the experiment in a black 384-well Purecoat Amine clear bottom plate (Becton Dickinson Biosciences, San Jose, Calif.) at 10,000 cells/well in 30 μL growth medium and incubated in a humidified chamber at 37° C. with 5% CO2 overnight. Prior to compound addition, the cell medium was replaced with 40 μL of 1× calcium and magnesium-containing Hank's Balanced Saline Solution (HBSS) (with 20 mM HEPES) and 1:1000 diluted fluorescent calcium indicator (Codex Biosolutions, Gaithersburg, Md.). After a 30 minute incubation period at 37° C. and a further 30 minute incubation and equilibration period at room temperature, 20 μL test compound (diluted in 1×HBSS buffer) was added at various concentrations at 0.17% dimethyl sulfoxide (DMSO) final concentration. Changes in fluorescence intensity were measured using a Functional Drug Screening System (FDSS, Hamamatsu, Japan) to determine agonist activities. The cells were then incubated for 30 minutes at room temperature followed by addition of 20 μL of agonist peptide for antagonist activity measurement. […] Compound potency was derived from 11-point concentration-response curves.
As indicated above, the FLIPR assay, an in vitro assay, measures the PAR4 antagonist activity of compounds tested as described in Example A.
For `COc1cc(OCC2CCCCN2c2ccc(Cl)cc2)c2cc(-c3cn4nc(OC)sc4n3)oc2c1` (single isomer, unassigned) [Example 56], the IC50 came out at 920 nM.
With `COc1cc(OCC2CCCN(c3ccc(Cl)cn3)C2)c2cc(-c3cn4nc(OC)sc4n3)oc2c1` (single isomer, unassigned) [Example 65], the IC50 was found to be 1000 nM.
As for `COc1cc(OC[C@H]2CCCN2c2ccc(C#N)cc2)c2cc(-c3cn4nc(OC)sc4n3)oc2c1` [Example 1, (R)-4-(2-(((6-methoxy-2-(2-methoxyimidazo[2,1-b][1,3,4]thiadiazol-6-yl)benzofuran-4-yl)oxy)methyl)pyrrolidin-1-yl)benzonitrile], the half-maximal inhibitory concentration (IC50) came out at 420 nM.
Regarding `COc1cc(OC[C@H]2CCCN2C2CCOCC2)c2cc(-c3cn4nc(OC)sc4n3)oc2c1` [Example 2, (R)-2-methoxy-6-(6-methoxy-4-((1-(tetrahydro-2H-pyran-4-yl)pyrrolidin-2-yl)methoxy)benzofuran-2-yl)imidazo[2,1-b][1,3,4]thiadiazole], the IC50 was 9400 nM.
Turning to `COc1ccc(N2CCN(C(=O)OC(C)(C)C)CC2COc2cc(OC)cc3oc(-c4cn5nc(C)ccc5n4)cc23)cc1` (centres unmarked) [Example 3, tert-butyl 3-(((6-methoxy-2-(6-methylimidazo[1,2-b]pyridazin-2-yl)benzofuran-4-yl)oxy)methyl)-4-(4-methoxyphenyl)piperazine-1-carboxylate], the IC50 was 1200 nM.
Turning to `COc1ccc(N2CCNCC2COc2cc(OC)cc3oc(-c4cn5nc(C)ccc5n4)cc23)cc1` (centres unmarked) [Example 4, 2-(6-methoxy-4-((1-(4-methoxyphenyl)piperazin-2-yl)methoxy)benzofuran-2-yl)-6-methylimidazo[1,2-b]pyridazine], the concentration for half-maximal inhibition (IC50) worked out at 460000 nM.
With `COc1ccc(N2CCN(C(=O)c3ccccc3)CC2COc2cc(OC)cc3oc(-c4cn5nc(C)ccc5n4)cc23)cc1` (centres unmarked) [Example 5, (3-(((6-methoxy-2-(6-methylimidazo[1,2-b]pyridazin-2-yl)benzofuran-4-yl)oxy)methyl)-4-(4-methoxyphenyl)piperazin-1-yl)(phenyl)methanone] the figure was 24000 nM; with `COc1ccc(N2CCN(C(=O)C3CC3)CC2COc2cc(OC)cc3oc(-c4cn5nc(C)ccc5n4)cc23)cc1` (centres unmarked) [Example 6, cyclopropyl(3-(((6-methoxy-2-(6-methylimidazo[1,2-b]pyridazin-2-yl)benzofuran-4-yl)oxy)methyl)-4-(4-methoxyphenyl)piperazin-1-yl)methanone], 15000 nM; with `COc1ccc(N2CCN(CC3CC3)CC2COc2cc(OC)cc3oc(-c4cn5nc(C)ccc5n4)cc23)cc1` (centres unmarked) [Example 7, 2-(4-((4-(cyclopropylmethyl)-1-(4-methoxyphenyl)piperazin-2-yl)methoxy)-6-methoxybenzofuran-2-yl)-6-methylimidazo[1,2-b]pyridazine], 16000 nM.
For the compound `COc1cc(OCC2CCCN(S(=O)(=O)c3ccc(C)cc3)C2)c2cc(-c3cn4nc(OC)sc4n3)oc2c1` (centres unmarked) [Example 8, 2-methoxy-6-(6-methoxy-4-((1-tosylpiperidin-3-yl)methoxy)benzofuran-2-yl)imidazo[2,1-b][1,3,4]thiadiazole], the IC50 stood at 1400 nM.
`COc1cc(OC[C@H]2CCCN2c2ccc(Cl)cc2)c2cc(-c3cn4nc(OC)sc4n3)oc2c1` [Example 9]: the IC50 was found to be 950 nM.
In the case of `COc1ccc(N2CCC[C@@H]2COc2cc(OC)cc3oc(-c4cn5nc(OC)sc5n4)cc23)cc1` [Example 10], the IC50 worked out at 390 nM.
As for `COc1cc(OC[C@H]2CCCN2c2ccc(F)cc2)c2cc(-c3cn4nc(OC)sc4n3)oc2c1` [Example 11], the IC50 came to 740 nM.
As for `COc1cc(OC[C@H]2CCCN2c2ccc3c(c2)OCO3)c2cc(-c3cn4nc(OC)sc4n3)oc2c1` [Example 12], the IC50 turned out to be 420 nM.
`CCOC(=O)c1ccc(N2CCC[C@@H]2COc2cc(OC)cc3oc(-c4cn5nc(OC)sc5n4)cc23)cc1` [Example 13]: the IC50 came out at 550 nM.
`COc1cc(OC[C@H]2CCC(=O)N2c2ccc(F)cc2)c2cc(-c3cn4nc(OC)sc4n3)oc2c1` [Example 14]: the concentration for half-maximal inhibition (IC50) came out at 12000 nM.
The same measure for `COc1cc(OC[C@@H]2CCCN2c2ccc(Cl)cc2)c2cc(-c3cn4nc(OC)sc4n3)oc2c1` [Example 15]: 1300 nM; for `COc1cc(OC[C@@H]2CCCN2c2ccc(C#N)cc2)c2cc(-c3cn4nc(OC)sc4n3)oc2c1` [Example 16]: 500 nM.
On to `COc1ccc(N2CCC[C@H]2COc2cc(OC)cc3oc(-c4cn5nc(OC)sc5n4)cc23)cc1` [Example 17], for which the IC50 turned out to be 290 nM.
In the case of `COc1cc(OC[C@@H]2CCCN2c2ccc(F)cc2)c2cc(-c3cn4nc(OC)sc4n3)oc2c1` [Example 18], the 50% inhibitory concentration (IC50) turned out to be 470 nM.
With `COc1cccc(N2CCC[C@H]2COc2cc(OC)cc3oc(-c4cn5nc(OC)sc5n4)cc23)c1` [Example 19], the concentration for half-maximal inhibition (IC50) came to 460 nM.
The same measure for `COc1ccc(N2CCC[C@H]2COc2cc(OC)cc3oc(-c4cn5nc(OC)sc5n4)cc23)nc1` [Example 20]: 710 nM.
On to `COc1cc(OC[C@@H]2CCCN2c2ccc3c(c2)OCO3)c2cc(-c3cn4nc(OC)sc4n3)oc2c1` [Example 21], for which the concentration for half-maximal inhibition (IC50) was 540 nM.
Turning to `COc1cc(OC[C@@H]2CCCN2c2ccc(C(F)(F)F)cc2)c2cc(-c3cn4nc(OC)sc4n3)oc2c1` [Example 22], the 50% inhibitory concentration (IC50) was 440 nM.
With `COc1cc(OC[C@@H]2CCCN2c2ccc(OC(F)(F)F)cc2)c2cc(-c3cn4nc(OC)sc4n3)oc2c1` [Example 23], the IC50 was 600 nM.
With `COc1cc(OC[C@@H]2CCCN2c2ccc(C)cc2)c2cc(-c3cn4nc(OC)sc4n3)oc2c1` [Example 24] the figure was 950 nM.
Take `COc1cc(OC[C@@H]2CCN(c3ccc(Cl)cc3)C2)c2cc(-c3cn4nc(OC)sc4n3)oc2c1` [Example 25]: the IC50 came to 790 nM.
As for `COc1ccc(N2CC[C@@H](COc3cc(OC)cc4oc(-c5cn6nc(OC)sc6n5)cc34)C2)cc1` [Example 26], the IC50 came out at 1400 nM.
Take `COc1cc(OCC2CN(c3ccc(F)cc3)C2)c2cc(-c3cn4nc(OC)sc4n3)oc2c1` [Example 27]: the IC50 was found to be 2300 nM.
With `COc1cc(OC[C@@H]2CCCN(c3ccc(C#N)cc3)C2)c2cc(-c3cn4nc(OC)sc4n3)oc2c1` [Example 28], the half-inhibitory concentration (IC50) amounted to 1800 nM.
As to `CCOC(=O)c1ccc(N2CCC[C@@H](COc3cc(OC)cc4oc(-c5cn6nc(OC)sc6n5)cc34)C2)cc1` [Example 29], the IC50 came out at 950 nM.
`COc1cc(OC[C@H]2CCCN(c3ccc(C#N)cc3)C2)c2cc(-c3cn4nc(OC)sc4n3)oc2c1` [Example 30]: the IC50 was 860 nM.
Turning to `CCOC(=O)c1ccc(N2CCC[C@H](COc3cc(OC)cc4oc(-c5cn6nc(OC)sc6n5)cc34)C2)cc1` [Example 31], the IC50 is 890 nM.
For `COc1ccc(N2CCCC(COc3cc(OC)cc4oc(-c5cn6nc(OC)sc6n5)cc34)C2)nc1` (centres unmarked) [Example 32], the IC50 was determined as 2800 nM.
As to `COc1cc(OCC2CCCN(c3ccc(Cl)cc3)C2)c2cc(-c3cn4nc(OC)sc4n3)oc2c1` (centres unmarked) [Example 33], the IC50 worked out at 440 nM.
As for `COc1cc(OC[C@@H]2CCCN(c3ccc(Cl)cc3)C2)c2cc(-c3cn4nc(OC)sc4n3)oc2c1` [Example 34], the IC50 was 700 nM.
The same measure for `COc1cc(OC[C@H]2CCCN(c3ccc(Cl)cc3)C2)c2cc(-c3cn4nc(OC)sc4n3)oc2c1` [Example 35]: 840 nM; for `COc1ccc(N2CCCC(COc3cc(OC)cc4oc(-c5cn6nc(OC)sc6n5)cc34)C2)cc1` (centres unmarked) [Example 36]: 750 nM.
For the compound `COc1cc(OCC2CCCN(c3ncc(F)cc3F)C2)c2cc(-c3cn4nc(OC)sc4n3)oc2c1` (centres unmarked) [Example 37], the IC50 was 560 nM.
Turning to `COc1cc(OCC2CCCN(c3ccc4c(c3)OCO4)C2)c2cc(-c3cn4nc(OC)sc4n3)oc2c1` (centres unmarked) [Example 38], the IC50 turned out to be 540 nM.
Take `COc1cc(OCC2CCCN(c3ccc(C(F)(F)F)cc3)C2)c2cc(-c3cn4nc(OC)sc4n3)oc2c1` (centres unmarked) [Example 39]: the IC50 was 510 nM.
The same measure for `COc1cc(OCC2CCCN(c3ccc(C#N)cc3)C2)c2cc(-c3cn4nc(OC)sc4n3)oc2c1` (centres unmarked) [Example 40]: 1300 nM.
Consider `CCOC(=O)c1ccc(N2CCCC(COc3cc(OC)cc4oc(-c5cn6nc(OC)sc6n5)cc34)C2)cc1` (centres unmarked) [Example 41], for which the IC50 stood at 2100 nM.
On to `COc1ccc(N2CCCC(COc3cc(OC)cc4oc(-c5cn6nc(OC)sc6n5)cc34)C2)c(OC)c1` (centres unmarked) [Example 42], for which the IC50 amounted to 1100 nM.

A word on the IC50: it is the concentration that inhibits the measured activity by half.
